Laboratory results taken from patent US20230416224A1, “PROCESSES FOR PREPARING ARIMOCLOMOL CITRATE AND INTERMEDIATES THEREOF” (ZEVRA DENMARK A/S, priority 2020, published 2023).

Legend:
[1] = Stability of ORZY-04 on drying; format: physicochemical; conditions: 168 h of drying at 45° C. in vacuum
Experimental: A citric acid solution was prepared by charging citric acid (15.01 g, […]) and MeOH (100 mL) in a separate container and stirring for 5 min. at 20° C. The citric acid solution was then charged to the container containing the reaction solution, and the mixture was cooled to 0° C. and stirred for at least 12 h at 0° C. ORZY-04 was then isolated by filtration of the obtained suspension, and washed with MeOH (40 mL). Finally, the solids were dried at 45° C. in vacuum.

[2] = set-up: species or system human; conditions: in vivo
Experimental: The PK parameters of arimoclomol after single dose and multiple dose administrations of arimoclomol were studied. After single- and multiple-dose oral administration of arimoclomol, the overall median tmax was 0.25 to 3.00 hours.

[3] = format: in vivo, human
From the text: The stability permits that the permeability of arimoclomol is high based on urinary recovery in human mass balance trial.

[4] = set-up: species or system dogs; conditions: dog, in vivo
[5] = Particle size distribution of ORZY-05 by static automated imaging (Morphologi 4); format: physicochemical; conditions: ORZY-05 particles
Experimental: The materials and methods were essentially as in Example 7. In the present example, the cooling time of the cooling step of from 30° C. to 0° C. subsequent to addition of acetone was varied and its influence on the particle size of ORZY-05 was determined. The cooling time is a measure of how long it takes to reach 0° C. from 30° C. The particle size distribution (PSD) data shown in Table 3 were acquired using static automated imaging (Morphology 4).
Morphologi 4: The Particle size distribution of Arimoclomol citrate (ORZY-05) was also measured using a Malvern Morphologi 4 equipment.
Wet measurement was used for the needle shaped particles. […] Measurements were made using a thin path wet cell (75*75 mm). Samples were prepared by adding 20 mL of dispersant to 10 mg of API, followed by 30 s of stirring and 2 min of sonication in order to break the agglomerates. A microscope magnifier of X10 or X20 was used, and segmentation sharp edge and/or thresholding was used to improve the focus microscope focus.

[6] = Particle size distribution of ORZY-05 by Malvern Mastersizer 3000; format: physicochemical; conditions: ORZY-05 particles, Malvern Mastersizer 3000, volume distribution
Experimental: Further batches of ORZY-05 were prepared essentially as in Example 7 and the ORZY-05 particles were examined using Malvern Mastersizer 3000 as described in Example 11.
Malvern Mastersizer 3000: Particle size distribution of Arimoclomol citrate (ORZY-05) was determined by light scattering using a Malvern Mastersizer 3000 particle size analyzer (Malvern Instruments Ltd, Grovewood Road, Malvern, Worcestershire WR14 1XZ, United Kingdom) with a Hydro MV wet-dispersion unit attached. 2-Propanol with 1.8 g/L SPAN-85 additive was used as a dispersion medium (“dispersant”) and added to the dispersion unit. Prior to sample addition, the background counts of the system were determined by circulating the dispersant through the measurement cell under measurement conditions (2500 rpm stirrer speed). Samples for analysis were prepared by adding a suitable amount of Arimoclomol citrate to a 10 mL vial and pre-dispersing it with dispersant under light agitation for a few seconds. The pre-dispersed sample was then pipetted into the Hydro MV dispersion unit filled with dispersant to meet a laser obscuration range of 10-15%. A single-use PE pipette was used for this and representative sampling from the 10 mL vial was ensured by continuous agitation. […] Volume distributions were obtained and the D10, D50 and D90 were calculated from these distributions and reported. For each sample, a single sample preparation was analyzed using red light measurement only. Upon measurement completion, the sample cell was emptied and cleaned.

Structure (SMILES)	Number CE Diameter D10 [5]	Number CE Diameter D50 [5]	Number CE Diameter D90 [5]	Number CE Diameter Mean [5]	Number Length D10 [5]	Number Length D50 [5]	Number Length D90 [5]	Volume CE Diameter D10 [5]	Volume CE Diameter D50 [5]	Volume CE Diameter D90 [5]	Volume CE diameter D[3,2] [5]	Volume CE diameter D[4,3] [5]	D10 [6]	D50 [6]	D90 [6]	other results
[O-][n+]1cccc(/C(Cl)=N/OC[C@H](O)CN2CCCCC2)c1 [ORZY-04]																stability on drying [1]: stable
[O-][n+]1cccc(C(Cl)=NOC[C@H](O)CN2CCCCC2)c1 [arimoclomol, N-{[(2R)-2-hydroxy-3-piperidin-1-ylpropyl]oxy}pyridine-3-carboximidoyl chloride 1-oxide]																PK parameters (Cmax and AUC0-8) versus dose [2]: increase in proportion to the dose; absorption ([2]; po): rapid and extensive; drug-related material recovered in faeces ([3]; in vivo): 12%; drug-related material recovered in the urine ([3]; in vivo): 77.5%; permeability ([3]; not told): high; absolute bioavailability [4]: 75%
O=C(O)CC(O)(CC(=O)O)C(=O)O.[O-][n+]1cccc(/C(Cl)=N/OC[C@H](O)CN2CCCCC2)c1 [compound 1002, arimoclomol citrate]	2.45 μm	5.61 μm	15.01 μm	7.71 μm	3.46 μm	7.37 μm	22.17 μm	12.39 μm	32.12 μm	73.60 μm	24.24 μm	39.38 μm	14.00 μm	53.00 μm	118.00 μm	
O=C(O)CC(O)(CC(=O)O)C(=O)O.[O-][n+]1cccc(/C(Cl)=N/OC[C@H](O)CN2CCCCC2)c1 [compound 1003, arimoclomol citrate]	0.89 μm	3.34 μm	14.14 μm	5.79 μm	4.20 μm	9.50 μm	25.49 μm	10.66 μm	20.58 μm	34.54 μm	17.52 μm	22.10 μm	6.00 μm	17.00 μm	47.00 μm	
O=C(O)CC(O)(CC(=O)O)C(=O)O.[O-][n+]1cccc(/C(Cl)=N/OC[C@H](O)CN2CCCCC2)c1 [compound 1004, arimoclomol citrate]	1.05 μm	2.86 μm	13.33 μm	5.31 μm	2.82 μm	6.18 μm	24.80 μm	12.62 μm	25.00 μm	43.46 μm	20.53 μm	27.06 μm	8.00 μm	22.00 μm	68.00 μm	
